# Reference: patent US5668136A, “Trisubstituted benzene derivatives, composition and methods of treatment” (priority 1990, dated 1997)
# Experiments:
# [1] = One week toxic study in rats; format: in vivo, Sprague-Dawley rats; conditions: oral, 100 mg/kg daily for one week; for toxicity (overall finding of one week study): same condition
# Protocol: The compound was orally given to animals at daily does of 100 mg/kg for one week.
# ACAT = molecular target: T1, ACAT (Oryctolagus cuniculus, UniProt G1SFD9); test: ACAT-inhibitory activity (in-vitro test, esterification of cholesterol with oleoyl-CoA, microsome of the small intestine of a rabbit); format: biochemical
# T1 construct: by using the microsome of the small intestine of a rabbit as an enzyme source; from tissue; host or cells: rabbit small intestine, microsomes
# T1 sequence (G1SFD9 1-524): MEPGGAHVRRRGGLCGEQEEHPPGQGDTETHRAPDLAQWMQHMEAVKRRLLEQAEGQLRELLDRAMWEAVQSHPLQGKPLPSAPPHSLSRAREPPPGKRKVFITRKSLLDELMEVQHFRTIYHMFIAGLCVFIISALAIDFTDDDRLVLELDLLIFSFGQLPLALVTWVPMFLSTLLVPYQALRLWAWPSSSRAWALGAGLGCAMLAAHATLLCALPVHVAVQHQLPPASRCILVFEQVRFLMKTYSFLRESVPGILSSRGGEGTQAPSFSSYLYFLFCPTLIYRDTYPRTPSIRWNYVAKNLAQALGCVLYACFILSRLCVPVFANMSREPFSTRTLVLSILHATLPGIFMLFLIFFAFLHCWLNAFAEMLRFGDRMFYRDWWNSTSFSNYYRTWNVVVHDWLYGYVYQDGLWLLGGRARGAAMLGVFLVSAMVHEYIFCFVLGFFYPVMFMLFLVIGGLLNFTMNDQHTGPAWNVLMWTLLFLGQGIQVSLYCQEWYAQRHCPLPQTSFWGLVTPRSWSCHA
# Protocol: Representative compounds according to the present invention were examined for ACAT-inhibitory activity according to the in-vitro test proposed in Journal of Lipid Research, vol.
# The inhibitory activity of a test compound against esterification or acylation of cholesterol with oleoyl CoA or acyl-CoA was evaluated by using the microsome of the small intestine of a rabbit as an enzyme source and determining the amount of a radioisotope-labeled cholesterol oleate made from a radioisotope-labeled oleoyl-CoA and (free) cholesterol.
# [2] = In-vivo test: serum cholesterol level in hypercholesterolemic rats; parameters: species or system male Sprague-Dawley rat; conditions: oral, once a day, 10 mg per kg; food containing 1% of cholesterol for 2 days
# Protocol: A male Sprague-Dawley rat was made to get hypercholesterolemia by feeding with food containing 1% of cholesterol for 2 days. A compound of the present invention (compound of Example 1, 54, 17 or 64) was orally administered to the rat once a day in a dose of 10 mg per kg of the weight.
Compound,toxicity (overall finding of one week study) [1],IC50 (ACAT) [nM],lowering of serum cholesterol level [2],toxicological symptom during the administration [1]
"CCCCNC(=O)Nc1c(C)cccc1OCCCn1cnc(-c2ccccc2)c1C(C)C [Example 80, N-[6-Methyl-2-[3-{5-(1-methylethyl)-4-phenyl-1H-imidazol-1-yl}propoxy]]phenyl-N'-butylurea]",no toxic substances,88,–,–
"CCCCCCNC(=O)Nc1c(OCCCn2cnc(-c3ccccc3)c2)cccc1N(C)C [Example 17, N-[6-N,N-Dimethylamino-2-{3-(4-phenyl-1H-imidazol-1-yl)propoxy}]phenyl-N'-hexylurea]",no toxic substances,31,effectively lowered,–
"CCCCCNC(=O)Nc1c(OCCCN2CCN(c3ccccc3)CC2)cccc1N(C)C [Example 64, N-[6-N,N-Dimethylamino-2-{3-(4-phenylpiperazin-1-yl)propoxy}]phenyl-N'-pentylurea]",–,17,effectively lowered,–
"CCCCCNC(=O)Nc1c(C)cccc1OCCCn1cnc(-c2ccccc2)c1Cl [Example 93, N-[6-Methyl-2-{3-(5-chloro-4-phenyl-1H-imidazol-1-yl)-propoxy}]phenyl-N'-pentylurea]",–,49,–,–
"CCCCNC(=O)Nc1c(OCCCn2cnc(-c3ccccc3)c2)cccc1N(C)C [Example 2, N-[6-N,N-Dimethylamino-2-{3-(4-phenyl-1H-imidazol-1-yl)propoxy}]phenyl-N'-butylurea]",no toxic substances,–,–,–
"CCCCCNC(=O)Nc1c(OCCCn2cnc(-c3ccccc3)c2C)cccc1N(C)C [Example 1, N-[6-N,N-Dimethylamino-2-{3-(5-methyl-4-phenyl-1H-imidazol-1-yl)propoxy}]phenyl-N'-pentylurea]",no toxic substances,43,effectively lowered,–
"CCCCCNC(=O)Nc1c(C)cccc1OCCCn1cnc(-c2ccccc2)c1C [Example 127, N-[6-Methyl-2-{3-(5-methyl-4-phenyl-1H-imidazol-1-yl)-propoxy}]phenyl-N'-pentylurea]",no toxic substances,100,–,–
"CCCCNC(=O)Nc1c(C)cccc1OCCCn1cnc(-c2ccccc2)c1CC [Example 81, N-[6-Methyl-2-{3-(5-ethyl-4-phenyl-1H-imidazol-1-yl)-propoxy}]phenyl-N'-butylurea]",no toxic substance,–,–,No toxicological sympton was observed
"CCCCNC(=O)Nc1c(C)cccc1OCCCn1cnc(-c2ccccc2)c1 [Example 54, N-[6-Methyl-2-{3-(4-phenyl-1H-imidazol-1-yl)propoxy}]-phenyl-N'-butylurea]",–,48,effectively lowered,–
"CCCCCNC(=O)Nc1c(OCCCn2cnc(-c3ccccc3)c2)cccc1N(C)C [Example 5, N-[6-N,N-Dimethylamino-2-{3-(4-phenyl-1H-imidazol-1-yl)propoxy}]phenyl-N'-pentylurea]",no toxic substances,–,–,–
